Columns and labels:
[1] = test system: ob/ob mouse; test: Hair growth experiment using an iNOS inhibitor in shaved/depilated ob/ob mice; assay type: in vivo; conditions: for time until deposition of melanin pigments in the skin was observed: hair removed at 8 weeks of age, intraperitoneal in saline (10, 20 and 30 mg/kg for 1400W, L-NIL, BYK191023), time from start of administration; for area of hair growth compared to 1400W: 4 weeks
Procedure: For this experiment, the ob/ob mouse purchased from Sankyo Labo Service Corporation was used. The whole back of the mouse was shaved using an electric shaver under anesthesia (mixed anesthesia of ketamine hydrochloride and xylazine hydrochloride) at 8 weeks of age, and the hair was removed with a commercially available depilatory cream (Epilat hair removal cream from Kracie Holdings, Ltd.). Administration or application of each iNOS inhibitor was carried out on the day the experiment began. The usage and dosage of the iNOS inhibitors used are as described below. Selective iNOS inhibitors, 1400W, L-NIL and BYK191023, were purchased from Tocris Bioscience and dissolved in saline solution, and each of them was administered intraperitoneally at 10 mg/kg, 20 mg/kg and 30 mg/kg. For the control group, saline solution was administered intraperitoneally. Consecutive administration for five days from Monday to Friday was continued for one month. A similarly selective iNOS inhibitor, aminoguanidine, was purchased from Tokyo Chemical Industry Co., Ltd. and dissolved in saline solution to 10% (w/v), and 100 μl was applied to the epilation area. For the control group, saline solution was used. Consecutive application for five days from Monday to Friday was continued for one month. The back was photographed once a week and observation was continued until 12 weeks of age. Every seven days from the start of the administration, the state of hair growth in the shaved area was rated using the hair growth score standard below.
(Hair Growth Score Standard)
1=hair growth in less than 10% of the shaved area
2=hair growth in equal to or more than 10% and less than 20% of the shaved area
3=hair growth in equal to or more than 20% and less than 30% of the shaved area
4=hair growth in equal to or more than 30% and less than 40% of the shaved area
5=hair growth in equal to or more than 40% and less than 50% of the shaved area
6=hair growth in equal to or more than 50% and less than 60% of the shaved area
7=hair growth in equal to or more than 60% and less than 70% of the shaved area
8=hair growth in equal to or more than 70% and less than 80% of the shaved area
9=hair growth in equal to or more than 80% and less than 90% of the shaved area
10=hair growth in equal to or more than 90% of the shaved area

[2] = test system: C3H mouse and C57BL/6 mouse; test: Hair growth experiment using wild-type mice (application of aminoguanidine); assay type: in vivo; conditions: C3H and C57BL/6 mice, 10% (w/v) in saline, 100 μl applied to the epilation area, five days a week for three weeks
Procedure: In this experiment, the same method as Example 2 was used, except that the C3H mouse and C57BL/6 mouse were used. The whole back of the mouse was shaved using an electric shaver under anesthesia (mixed anesthesia of ketamine hydrochloride and xylazine hydrochloride) at 8 weeks of age, and the hair was removed with a commercially available depilatory cream (Epilat hair removal cream from Kracie Holdings, Ltd.). Application of aminoguanidine was carried out on the day the experiment began. The usage and dosage of the aminoguanidine used are as described below. Aminoguanidine was purchased from Tokyo Chemical Industry Co., Ltd. and dissolved to 10% (w/v) in saline solution, and 100 μl was applied to the epilation area. For the control group, saline solution was used. Consecutive application for five days from Monday to Friday was continued for three weeks, and the back was photographed daily.

[3] = 10% (w/v) in saline, 100 μl applied to the epilation area, time from start of application

SMILES: CC(=N)NCc1cccc(CN)c1 [1400W]
- time until widespread hair growth was confirmed ([1]; intraperitoneal administration, five days a week for one month): four

SMILES: COc1ccnc(CCc2nc3ncccc3[nH]2)c1 [BYK191023]
- time until deposition of melanin pigments in the skin was observed ([1]; five days a week for one month): three
- area of hair growth compared to 1400W ([1]; intraperitoneal administration): less

SMILES: CC(=N)NCCCC[C@H](N)C(=O)O [L-NIL]
- time until deposition of melanin pigments in the skin was observed ([1]; five days a week for one month): three
- area of hair growth compared to 1400W ([1]; intraperitoneal administration): less

SMILES: N=C(N)NN [aminoguanidine]
- shortening of the telogen phase compared to the control group [2]: two to three
- time until hair growth was confirmed [1, 3]: two
- time until hair returned to almost the same as the original condition [1, 3]: four
- time until widespread hair growth was confirmed [1, 3]: three
